Experimental data as given in article PMC11286508, “Repurposing pexmetinib as an inhibitor of TKI-resistant BCR::ABL1” (Leukemia, 2024).

Key:
[1] = tested on: T1, BCR::ABL1 (Ba/F3 isogenic cells); experiment: Ba/F3 MTS viability assay; type: cell-based; details: growth of BCR::ABL1-dependent Ba/F3 cells; stated gain
T1 construct: BCR::ABL1 fusion oncoprotein, one polypeptide (BCR N-terminal, ABL1 C-terminal); expressed in murine Ba/F3 cells by electroporation; with Breakpoint cluster region protein

[2] = tested on: T1, BCR::ABL1 (Ba/F3 isogenic cells); experiment: Ba/F3 MTS viability assay; type: cell-based; details: growth of BCR::ABL1-dependent Ba/F3 cells; parental Ba/F3 + IL-3 as control

IC50 [1]: 2099 nM
SMILES: Cc1ccc(-n2nc(C(C)(C)C)cc2NC(=O)NCc2cc(F)ccc2Oc2ccc3c(cnn3CCO)c2)cc1 [pexmetinib]
IC50 [2]: 411 nM
